Measurements as given in patent US20240209011A1, “HETEROAROMATIC PHOSPHONIUM SALTS FOR TREATING CANCER” (FLORATEK PHARMA S.A., priority 2021, published 2024).
Each block holds one compound with its values, some of them ahead of it.

How the values were obtained:
Type in all cases: cell-based
[1] = tested on: OVXF 899; test: Cell viability assay (CellTiter-Blue/CellTiter-Glow); details: ovarian carcinoma cell line OVXF 899; absolute IC50; 72 h
In short: (§1)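 72 h viability assay in RPMI 1640 or DMEM plus 10% FCS; seeding density set by growth rate (4,000-20,000 cells/well). CellTiter-Blue or CellTiter-Glo endpoint, absolute IC50 at T/C=50%.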

[2] = tested on: parental H69 cells; test: as above; details: Homo sapiens, NCI-H69; SCLC parental H69 cells
In short: as §1

[3] = tested on: U-251; test: as above; details: Homo sapiens; brain carcinoma cell line U-251; absolute IC50; 72 h
In short: as §1

[4] = tested on: U-118; test: as above; details: brain carcinoma cell line U-118; absolute IC50; 72 h
In short: as §1

[5] = tested on: MDA-MB-436; test: as above; details: Homo sapiens; breast carcinoma cell line MDA-MB-436; absolute IC50; 72 h
In short: as §1

[6] = tested on: SK-N-AS; test: as above; details: Homo sapiens; brain carcinoma cell line SK-N-AS; absolute IC50; 72 h
In short: as §1

[7] = tested on: CHP-134; test: as above; details: Homo sapiens; brain carcinoma cell line CHP-134; absolute IC50; 72 h
In short: as §1

[8] = tested on: Panc-1; test: as above; details: Homo sapiens; pancreatic carcinoma cell line Panc-1; absolute IC50; 72 h
In short: as §1

[9] = tested on: SH-SY-5Y; test: as above; details: Homo sapiens, SH-SY5Y; brain carcinoma cell line SH-SY-5Y; absolute IC50; 72 h
In short: as §1

[10] = tested on: BT-474; test: as above; details: Homo sapiens; breast carcinoma cell line BT-474; absolute IC50; 72 h
In short: as §1

[11] = tested on: ZR-75-1; test: as above; details: Homo sapiens; breast carcinoma cell line ZR-75-1; absolute IC50; 72 h
In short: as §1

[12] = tested on: small cell lung carcinoma PDX SC6; test: PDX-derived cell culture cytotoxicity (CellTiter-Glo); details: 120 h; small cell lung carcinoma PDX SC6 (FIG. 13); 5 days
Description: (§2) PDX-derived cell cultures were obtained from tumors explanted from mice and isolated by mechanical and enzymatic dissociation. […] Cells were harvested and seeded in 96-wells plates at a density of 1.25 to 5×10^3 cells/well for cytotoxicity assays. Cells were incubated 48 h at 37° C. prior to addition of test molecules and vehicle (DMSO, 0.1%) at desired final concentrations. Cell viability was assessed before drugs' addition (To) and 5 days after test molecules addition by measuring ATP cell content using CellTiter-Glo® Luminescent Cell Viability Assay (Promega) according to the manufacturer's instructions. Luciferase activity was measured on a luminometer (PerkinElmer® EnVision™). Each concentration of compounds was tested in triplicate.
(§3) Viability was calculated as a percentage of ATP value compared to vehicle treated controls.
(§4) For PDX primary cell cultures, the tumour tissue was washed with PBS containing antibiotic-antimycotic and non-tumour tissue and necrotic tumour tissues were separated. The tumour tissue was transferred to a new dish and cut into 1-2 mm^3 fragments, resuspended in RPMI-1640 medium and centrifuged at 1,200 rpm for 6 min at room temperature. The pelleted material was resuspended with 15 mL of Tumour Cell Digestion Solution and incubated at 37° C. for 1 hour with agitation. Following further addition of media, centrifugation and passage through a […] cell strainer, the homogenous cell mixture was layered onto 15 mL of Ficoll-Paque PLUS in a 50 mL conical tube and centrifuged for 15 min at 1,600 rpm. The interface cells were collected, washed with media, separated by centrifugation at 1,200 rpm. The cell pellet was resuspended in serum free media supplemented with growth factors. 10,000 cells/wells were plated in a 96 well plate and incubated at 37° C., 5% CO2, 95% air and 100% relative humidity overnight. The cytotoxicity assay was conducted as above. IC50 values represent absolute IC50.

[13] = tested on: brain carcinoma PDX GBM14-CHA; test: as above; details: 120 h; PDX brain carcinoma GBM14-CHA (FIG. 3); 5 days
Description: as §2, §3, §4

Structure (SMILES): CCNC(=O)Oc1ccc2c(=O)cc(-c3ccc(CCCC[P+](c4ccccc4)(c4ccccc4)c4ccccc4)cc3)oc2c1O.[Br-] [SND126A, 4-[4-[7-(Ethylcarbamoyloxy)-8-hydroxy-4-oxo-chromen-2-yl]phenyl]butyltriphenylphosphonium bromide]
IC50 [1]: 17.6 µM | IC50 [2]: 3.63 µM

IC50 [3]: 1.87 µM | IC50 [5]: 2.3 µM | IC50 [6]: 3.5 µM | IC50 [8]: 2.32 µM | IC50 [9]: 4.9 µM | IC50 [10]: 1.6 µM
Structure (SMILES): O=c1cc(-c2ccc(CCCC[P+](c3ccccc3)(c3ccccc3)c3ccccc3)cc2)oc2c3c(ccc12)OCO3.[Br-] [SND123, 4-[4-(6-oxo-[1,3]dioxolo[4,5-h]chromen-8-yl)phenyl]butyl-triphenylphosphonium bromide]
IC50 [4]: 8.3 µM | IC50 [7]: 1.8 µM | IC50 [11]: 2.5 µM

Structure (SMILES): COc1c(O)ccc2c(=O)cc(-c3ccc(CCCC[P+](c4ccccc4)(c4ccccc4)c4ccccc4)cc3)oc12.[Br-] [SND140, (4-(4-(7-hydroxy-8-methoxy-4-oxo-4H-chromen-2-yl)phenyl)butyl)triphenylphosphonium bromide]
IC50 [12]: 7.02 µM | IC50 [13]: 6.47 µM
